Experimental data published in patent publication US20090018134A1, “Compounds - 945” (AstraZeneca AB, priority 2007, published 2009).
Read-outs that look alike come from different tables or passages of the source.

Target: T1, mTOR (Homo sapiens, UniProt P42345)
T1 construct: FLAG; made in house
Assay: In Vitro mTOR Kinase Assay (Echo), Test (a)(ii)
Format: biochemical
Method in brief: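 Inhibition of truncated mTOR (1362-2549, FLAG-tagged, purified from stably transfected HEK293 cells) is measured as reduced AlphaScreen signal from a phospho-T389-recognising antibody bound to the biotinylated peptide product. Kinase incubation lasts 2 hours at room temperature. Potency is given as IC50.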

[1] = table of enzyme assay Test (a)(ii), read-out: Test (a)(ii) IC50
[2] = read-out: mTOR Kinase Assay (Echo)

T1 sequence (P42345 1362-2549): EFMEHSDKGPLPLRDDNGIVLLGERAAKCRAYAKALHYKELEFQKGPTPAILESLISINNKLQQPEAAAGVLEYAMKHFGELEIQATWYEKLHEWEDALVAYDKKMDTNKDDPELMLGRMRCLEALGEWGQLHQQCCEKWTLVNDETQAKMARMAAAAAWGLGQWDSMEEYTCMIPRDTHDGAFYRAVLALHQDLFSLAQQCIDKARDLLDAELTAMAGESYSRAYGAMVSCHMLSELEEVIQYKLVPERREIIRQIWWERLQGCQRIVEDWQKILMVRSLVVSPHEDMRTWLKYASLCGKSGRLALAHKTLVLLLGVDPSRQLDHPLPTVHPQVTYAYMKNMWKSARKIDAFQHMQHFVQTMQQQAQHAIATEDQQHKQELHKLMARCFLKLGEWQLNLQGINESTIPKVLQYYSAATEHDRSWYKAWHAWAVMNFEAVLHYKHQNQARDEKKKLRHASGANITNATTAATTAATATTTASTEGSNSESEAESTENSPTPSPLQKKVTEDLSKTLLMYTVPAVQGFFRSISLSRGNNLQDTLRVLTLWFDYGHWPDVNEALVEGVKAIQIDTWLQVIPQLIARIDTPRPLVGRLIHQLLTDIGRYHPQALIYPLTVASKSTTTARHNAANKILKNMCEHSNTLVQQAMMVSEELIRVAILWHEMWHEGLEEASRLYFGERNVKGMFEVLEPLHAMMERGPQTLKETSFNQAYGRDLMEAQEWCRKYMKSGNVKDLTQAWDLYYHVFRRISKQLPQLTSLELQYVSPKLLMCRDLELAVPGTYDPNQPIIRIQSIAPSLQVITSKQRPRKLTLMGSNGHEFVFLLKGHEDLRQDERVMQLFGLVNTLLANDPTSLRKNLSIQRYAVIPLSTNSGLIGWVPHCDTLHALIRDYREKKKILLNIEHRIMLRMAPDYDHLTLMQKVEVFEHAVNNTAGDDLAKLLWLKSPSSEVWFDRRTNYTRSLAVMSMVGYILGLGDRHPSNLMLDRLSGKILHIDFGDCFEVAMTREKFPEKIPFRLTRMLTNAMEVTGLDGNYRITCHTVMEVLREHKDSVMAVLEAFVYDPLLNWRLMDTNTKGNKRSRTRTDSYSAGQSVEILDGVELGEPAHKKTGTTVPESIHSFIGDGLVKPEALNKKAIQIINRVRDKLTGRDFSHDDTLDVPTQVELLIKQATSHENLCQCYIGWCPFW

SMILES: Cc1noc(C)c1S(=O)(=O)C1(c2cc(N3CCOC[C@@H]3C)nc(-c3ccc(NC(=O)NCC4(O)CC4)cc3)n2)CC1 [Example 59e, 1-[4-[4-[1-[(3,5-dimethyl-1,2-oxazol-4-yl)sulfonyl]cyclopropyl]-6-[(3S)-3-methylmorpholin-4-yl]pyrimidin-2-yl]phenyl]-3-[(1-hydroxycyclopropyl)methyl]urea]
- IC50 [1]: 293 nM

SMILES: Cc1noc(C)c1S(=O)(=O)C1(c2cc(N3CCOC[C@@H]3C)nc(-c3ccc(NC(=O)NCCF)cc3)n2)CC1 [Example 59c, 1-[4-[4-[1-[(3,5-dimethyl-1,2-oxazol-4-yl)sulfonyl]cyclopropyl]-6-[(3S)-3-methylmorpholin-4-yl]pyrimidin-2-yl]phenyl]-3-(2-fluoroethyl)urea]
- IC50 [1]: 22.6 nM

SMILES: C[C@H]1COCCN1c1cc(C2(S(C)(=O)=O)CC2)nc(-c2ccc(NC(=O)NC3CC3)c(F)c2)n1 [Example 52, 3-cyclopropyl-1-[2-fluoro-4-[4-[(3S)-3-methylmorpholin-4-yl]-6-(1-methylsulfonylcyclopropyl)pyrimidin-2-yl]phenyl]urea]
- IC50 [1]: 18.4 nM

SMILES: Cc1csc(S(=O)(=O)C2(c3cc(N4CCOC[C@@H]4C)nc(-c4ccc(NC(=O)Nc5cnn(C)c5)cc4)n3)CC2)n1 [Example 25m, 1-[4-[4-[(3S)-3-methylmorpholin-4-yl]-6-[1-[(4-methyl-1,3-thiazol-2-yl)sulfonyl]cyclopropyl]pyrimidin-2-yl]phenyl]-3-(1-methylpyrazol-4-yl)urea]
- IC50 [1]: 0.25 nM

SMILES: C[C@H]1COCCN1c1cc(C2(S(=O)(=O)C3CCOCC3)CC2)nc(-c2ccc(NC(=O)Nc3cnn(C)c3)cc2)n1 [Example 94e, 1-[4-[4-[(3S)-3-methylmorpholin-4-yl]-6-[1-(oxan-4-ylsulfonyl)cyclopropyl]pyrimidin-2-yl]phenyl]-3-(1-methylpyrazol-4-yl)urea]
- IC50 [1]: 13.5 nM

SMILES: C[C@H]1COCCN1c1cc(C2(S(=O)(=O)c3ccncc3)CC2)nc(-c2ccc(NC(=O)Nc3ccc(C(F)(F)F)cc3)cc2)n1 [Example 6i, 1-[4-[4-[(3S)-3-methylmorpholin-4-yl]-6-(1-pyridin-4-ylsulfonylcyclopropyl)pyrimidin-2-yl]phenyl]-3-[4-(trifluoromethyl)phenyl]urea]
- IC50 [2]: 4.62 nM

SMILES: CC(C)CNC(=O)Nc1ccc(-c2nc(N3CCOC[C@@H]3C)cc(C3(S(=O)(=O)c4cc(F)cc(F)c4)CC3)n2)cc1 [Example 19c, 1-[4-[4-[1-(3,5-difluorophenyl)sulfonylcyclopro-pyl]-6-[(3S)-3-methylmorpholin-4-yl]pyrimidin-2-yl]phenyl]-3-(2-methylpropyl)urea]
- IC50 [1]: 21.4 nM

SMILES: C[C@H]1COCCN1c1cc(C2(S(=O)(=O)c3ccc(F)cc3)CC2)nc(-c2ccc(NC(=O)NC(C)(C)CO)cc2)n1 [Example 8f, 1-[4-[4-[1-(4-fluorophenyl)sulfonylcyclopropyl]-6-[(3S)-3-methylmorpholin-4-yl]pyrimidin-2-yl]phenyl]-3-(1-hydroxy-2-methyl-propan-2-yl)urea]
- IC50 [2]: 8.82 nM

SMILES: C[C@H]1COCCN1c1cc(C2(S(=O)(=O)CCCO)CCCC2)nc(-c2ccc(NC(=O)NC3CC3)cc2)n1 [Example 43f, 3-cyclopropyl-1-[4-[4-[1-(3-hydroxypropyl-sulfonyl)cyclopen-tyl]-6-[(3S)-3-methylmorpholin-4-yl]pyrimidin-2-yl]phenyl]urea]
- IC50 [1]: 39.2 nM

SMILES: C[C@H]1COCCN1c1cc(C2(S(=O)(=O)c3ccccn3)CCC2)nc(-c2ccc(NC(=O)NCCO)cc2)n1 [Example 36ah, 3-(2-hydroxyethyl)-1-[4-[4-[(3S)-3-methylmorpholin-4-yl]-6-(1-pyridin-2-ylsulfonylcyclobutyl)pyrimidin-2-yl]phenyl]urea]
- IC50 [1]: 2.47 nM

SMILES: Cc1csc(S(=O)(=O)C2(c3cc(N4CCOC[C@@H]4C)nc(-c4ccc(NC(=O)NCCCO)cc4)n3)CC2)n1 [Example 25l, 3-(3-hydroxypropyl)-1-[4-[4-[(3S)-3-methylmorpholin-4-yl]-6-[1-[(4-methyl-1,3-thiazol-2-yl)sulfonyl]cyclopropyl]pyrimidin-2-yl]phenyl]urea]
- IC50 [1]: 0.956 nM

SMILES: Cc1csc(S(=O)(=O)C2(c3cc(N4CCOC[C@@H]4C)nc(-c4ccc(NC(=O)NCC(C)C)cc4)n3)CC2)n1 [Example 25c, 1-[4-[4-[(3S)-3-methylmorpholin-4-yl]-6-[1-[(4-methyl-1,3-thiazol-2-yl)sulfonyl]cyclopropyl]pyrimidin-2-yl]phenyl]-3-(2-methylpropyl)urea]
- IC50 [1]: 3.85 nM

SMILES: CCNC(=O)Nc1ccc(-c2nc(N3CCOC[C@@H]3C)cc(C3(S(=O)(=O)c4ccc(F)cc4C)CC3)n2)cc1 [Example 82e, 3-ethyl-1-[4-[4-[1-(4-fluoro-2-methylphenyl)sulfonylcyclopropyl]-6-[(3S)-3-methylmorpholin-4-yl]pyrimidin-2-yl]phenyl]urea]
- IC50 [1]: 20.8 nM

SMILES: C[C@H]1COCCN1c1cc(C2(S(=O)(=O)C3CC3)CCC2)nc(-c2ccc(NC(=O)Nc3cnn(C)c3)cc2)n1 [Example 36h, 1-[4-[4-(1-cyclopropylsulfonylcyclobutyl)-6-[(3S)-3-methylmorpholin-4-yl]pyrimidin-2-yl]phenyl]-3-(1-methylpyrazol-4-yl)urea]
- IC50 [1]: 3.14 nM

SMILES: CC[C@H]1COCCN1c1cc(C2(S(C)(=O)=O)CC2)nc(-c2ccc(NC(=O)NCCO)cc2)n1 [Example 84b, 1-[4-[4-[(3S)-3-ethylmorpholin-4-yl]-6-(1-methylsulfonylcyclopropyl)pyrimidin-2-yl]phenyl]-3-(2-hydroxyethyl)urea]
- IC50 [1]: 3.85 nM

SMILES: CS(=O)(=O)C1(c2cc(N3CCOCC3)nc(-c3ccc(NC(=O)NCc4ncc[nH]4)cc3)n2)CC1 [Example 36t, 3-(1H-imidazol-2-ylmethyl)-1-[4-[4-(1-methylsulfonylcyclopropyl)-6-morpholin-4-ylpyrimidin-2-yl]phenyl]urea]
- IC50 [1]: 194 nM

SMILES: CN(C)CCNC(=O)Nc1ccc(-c2nc(N3CCOCC3)cc(C3(S(=O)(=O)C4CC4)CC3)n2)cc1 [Example 13f, 1-[4-[4-(1-cyclopropylsulfonylcyclopropyl)-6-morpholin-4-ylpyrimidin-2-yl]phenyl]-3-(2-dimethylaminoethyl)urea]
- IC50 [1]: 386 nM

SMILES: Cc1csc(S(=O)(=O)C2(c3cc(N4CCOC[C@@H]4C)nc(-c4ccc(NC(=O)NC5CC5)cc4)n3)CCCC2)n1 [Example 36dk, 3-cyclopropyl-1-[4-[4-[(3S)-3-methylmorpholin-4-yl]-6-[1-[(4-methyl-1,3-thiazol-2-yl)sulfonyl)cyclopentyl]pyrimidin-2-yl]phenyl]urea]
- IC50 [1]: 9.05 nM

SMILES: CCS(=O)(=O)C1(c2cc(N3CCOC[C@@H]3C)nc(-c3ccc(NC(=O)NCc4ncc[nH]4)cc3)n2)CC1 [Example 36w, 1-[4-[4-(1-ethylsulfonylcyclopropyl)-6-[(3S)-3-methylmorpholin-4-yl]pyrimidin-2-yl]phenyl]-3-(1H-imidazol-2-ylmethyl)urea]
- IC50 [1]: 110 nM

SMILES: C[C@H]1COCCN1c1cc(C2(S(=O)(=O)c3cc(F)cc(F)c3)CC2)nc(-c2ccc(NC(=O)NCCCO)cc2)n1 [Example 19l, 1-[4-[4-[1-(3,5-difluorophenyl)sulfonylcyclopro-pyl]-6-[(3S)-3-methylmorpholin-4-yl]pyrimidin-2-yl]phenyl]-3-(3-hydroxypropyl)urea]
- IC50 [1]: 1.52 nM

SMILES: C[C@H]1COCCN1c1cc(C2(S(=O)(=O)c3ccc(F)c(F)c3)CC2)nc(-c2ccc(NC(=O)NCC(F)F)cc2)n1 [Example 64m, 3-(2,2-difluoroethyl)-1-[4-[4-[1-(3,4-difluorophenyl)sulfonylcyclo-propyl]-6-[(3S)-3-methylmorpholin-4-yl]pyrimidin-2-yl]phenyl]urea]
- IC50 [1]: 40.8 nM

SMILES: CC(C)CNC(=O)Nc1ccc(-c2nc(N3CCOC[C@@H]3C)cc(C3(S(=O)(=O)c4ccccn4)CC3)n2)cc1 [Example 28c, 1-[4-[4-[(3S)-3-methylmorpholin-4-yl]-6-(1-pyridin-2-ylsulfonylcyclopropyl)pyrimidin-2-yl]phenyl]-3-(2-methylpropyl)urea]
- IC50 [1]: 8.47 nM

SMILES: CC[C@H]1COCCN1c1cc(C2(S(=O)(=O)c3ccccc3)CC2)nc(-c2ccc(NC(=O)N[C@H](C)CO)cc2)n1 [Example 74g, 1-[4-[4-[1-(benzenesulfonyl)cyclopropyl]-6-[(3S)-3-ethylmorpholin-4-yl]pyrimidin-2-yl]phenyl]-3-[(2R)-1-hydroxypropan-2-yl]urea]
- IC50 [1]: 4.33 nM

SMILES: O=C(Nc1ccc(-c2nc(N3CCOCC3)cc(C3(S(=O)(=O)c4ccncc4)CC3)n2)cc1)NC1CC1 [Example 36av, 3-cyclopropyl-1-[4-[4-morpholin-4-yl-6-(1-pyridin-4-ylsulfonylcyclopropyl)pyrimidin-2-yl]phenyl]urea]
- IC50 [1]: 9.95 nM

SMILES: CNC(=O)Nc1ccc(-c2nc(N3CCOC[C@@H]3C)cc(C3(S(=O)(=O)c4cccc(F)c4)CC3)n2)cc1 [Example 53, 1-[4-[4-[1-(3-Fluorophenyl)sulfonylcyclopropyl]-6-[(3S)-3-methylmorpholin-4-yl]pyrimidin-2-yl]phenyl]-3-methylurea]
- IC50 [1]: 2.18 nM

SMILES: C[C@H]1COCCN1c1cc(C2(S(=O)(=O)c3ccc(C#N)cc3Cl)CC2)nc(-c2ccc(NC(=O)NCCF)cc2)n1 [Example 85i, 1-[4-[4-[1-(2-chloro-4-cyanophenyl)sulfonylcyclopropyl]-6-[(3S)-3-methylmorpholin-4-yl]pyrimidin-2-yl]phenyl]-3-(2-fluoroethyl)urea]
- IC50 [1]: 15.3 nM

SMILES: C[C@H]1COCCN1c1cc(C2(S(=O)(=O)c3ccccc3Cl)CC2)nc(-c2ccc(NC(=O)NC3CC3)cc2)n1 [Example 76, 1-[4-[4-[1-(2-Chlorophenyl)sulfonylcyclopropyl]-6-[(3S)-3-methylmorpholin-4-yl]pyrimidin-2-yl]phenyl]-3-cyclopropylurea]
- IC50 [1]: 6.87 nM

SMILES: CNC(=O)Nc1ccc(-c2nc(N3CCOCC3)cc(C3(C(=O)N(C)C)CC3)n2)cc1 [Example 32, N,N-Dimethyl-1-[2-[4-(methylcarbamoylamino)phenyl]-6-morpholin-4-ylpyrimidin-4-yl]cyclopropane-1-carboxamide]
- IC50 [1]: 3.15 nM
